Values belong to the compound of their own block, whether it stands above or below them.
Columns and labels:
[1] = target: T1, Dual specificity tyrosine-phosphorylation-regulated kinase 2 (Homo sapiens) (UniProt Q92630); test: Inhibition of human recombinant DYRK2 at 500 nM in presence of ATP by radiometric assay relative to control
T1 sequence (whole entry): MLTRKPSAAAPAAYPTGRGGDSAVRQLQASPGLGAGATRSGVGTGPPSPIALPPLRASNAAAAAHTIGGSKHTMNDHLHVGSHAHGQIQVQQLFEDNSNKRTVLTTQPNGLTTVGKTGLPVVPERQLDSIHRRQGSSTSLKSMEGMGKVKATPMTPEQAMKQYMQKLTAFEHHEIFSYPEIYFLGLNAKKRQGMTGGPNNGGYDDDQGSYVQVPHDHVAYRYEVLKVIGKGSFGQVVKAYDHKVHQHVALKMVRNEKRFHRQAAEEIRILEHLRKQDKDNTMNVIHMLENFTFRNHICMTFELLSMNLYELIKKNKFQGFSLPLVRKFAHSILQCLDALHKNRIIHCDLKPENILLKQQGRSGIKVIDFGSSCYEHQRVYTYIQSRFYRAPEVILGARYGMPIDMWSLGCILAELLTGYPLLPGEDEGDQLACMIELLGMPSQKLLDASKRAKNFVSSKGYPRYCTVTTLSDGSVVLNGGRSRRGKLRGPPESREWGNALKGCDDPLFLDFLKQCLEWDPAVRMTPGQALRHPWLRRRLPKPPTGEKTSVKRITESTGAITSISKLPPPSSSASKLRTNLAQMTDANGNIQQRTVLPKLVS

[2] = target: T2, Mitogen-activated protein kinase kinase kinase 5 (Homo sapiens) (UniProt Q99683); test: Inhibition of human recombinant MAP3K5 at 500 nM in presence of ATP by radiometric assay relative to control
T2 sequence (whole entry): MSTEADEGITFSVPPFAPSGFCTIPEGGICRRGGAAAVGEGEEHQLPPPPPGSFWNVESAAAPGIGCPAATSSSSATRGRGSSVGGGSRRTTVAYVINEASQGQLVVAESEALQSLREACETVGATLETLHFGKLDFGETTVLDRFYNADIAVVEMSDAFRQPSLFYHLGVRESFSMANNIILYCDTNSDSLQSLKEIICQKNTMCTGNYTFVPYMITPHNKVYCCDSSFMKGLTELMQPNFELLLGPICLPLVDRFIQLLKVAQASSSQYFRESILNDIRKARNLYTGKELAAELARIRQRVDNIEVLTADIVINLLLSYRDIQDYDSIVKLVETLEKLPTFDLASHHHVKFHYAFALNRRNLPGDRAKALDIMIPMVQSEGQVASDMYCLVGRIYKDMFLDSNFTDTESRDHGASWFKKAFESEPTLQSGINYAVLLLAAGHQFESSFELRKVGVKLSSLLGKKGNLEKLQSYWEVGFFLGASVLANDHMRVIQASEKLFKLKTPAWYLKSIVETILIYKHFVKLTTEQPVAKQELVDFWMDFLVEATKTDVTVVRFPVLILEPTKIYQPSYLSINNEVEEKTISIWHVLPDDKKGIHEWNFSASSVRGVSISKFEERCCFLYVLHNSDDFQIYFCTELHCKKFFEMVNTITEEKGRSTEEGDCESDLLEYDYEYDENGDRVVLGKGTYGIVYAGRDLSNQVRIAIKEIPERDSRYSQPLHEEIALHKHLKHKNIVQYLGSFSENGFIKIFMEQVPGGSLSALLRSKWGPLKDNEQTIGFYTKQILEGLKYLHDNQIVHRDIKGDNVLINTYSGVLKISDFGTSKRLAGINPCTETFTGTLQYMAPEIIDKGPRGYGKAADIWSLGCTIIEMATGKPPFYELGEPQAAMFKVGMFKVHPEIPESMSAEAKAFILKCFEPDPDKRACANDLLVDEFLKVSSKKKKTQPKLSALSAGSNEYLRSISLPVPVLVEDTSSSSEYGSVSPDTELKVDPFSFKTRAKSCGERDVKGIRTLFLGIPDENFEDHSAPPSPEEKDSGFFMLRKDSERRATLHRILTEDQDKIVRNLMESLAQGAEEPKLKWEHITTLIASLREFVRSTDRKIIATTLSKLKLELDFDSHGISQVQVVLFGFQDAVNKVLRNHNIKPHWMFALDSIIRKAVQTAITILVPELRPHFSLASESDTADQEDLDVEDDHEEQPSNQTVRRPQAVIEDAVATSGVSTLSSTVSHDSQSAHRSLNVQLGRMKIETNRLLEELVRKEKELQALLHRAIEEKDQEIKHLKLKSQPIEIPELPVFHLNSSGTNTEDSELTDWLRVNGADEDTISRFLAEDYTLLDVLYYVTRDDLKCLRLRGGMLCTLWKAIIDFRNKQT

[3] = target: TRAF2 and NCK-interacting protein kinase (Homo sapiens) (UniProt Q9UKE5); test: Inhibition of human recombinant TNIK at 500 nM related to control ULK1
TRAF2 and NCK-interacting protein kinase (Homo sapiens), sequence (Q9UKE5 whole entry, looked up): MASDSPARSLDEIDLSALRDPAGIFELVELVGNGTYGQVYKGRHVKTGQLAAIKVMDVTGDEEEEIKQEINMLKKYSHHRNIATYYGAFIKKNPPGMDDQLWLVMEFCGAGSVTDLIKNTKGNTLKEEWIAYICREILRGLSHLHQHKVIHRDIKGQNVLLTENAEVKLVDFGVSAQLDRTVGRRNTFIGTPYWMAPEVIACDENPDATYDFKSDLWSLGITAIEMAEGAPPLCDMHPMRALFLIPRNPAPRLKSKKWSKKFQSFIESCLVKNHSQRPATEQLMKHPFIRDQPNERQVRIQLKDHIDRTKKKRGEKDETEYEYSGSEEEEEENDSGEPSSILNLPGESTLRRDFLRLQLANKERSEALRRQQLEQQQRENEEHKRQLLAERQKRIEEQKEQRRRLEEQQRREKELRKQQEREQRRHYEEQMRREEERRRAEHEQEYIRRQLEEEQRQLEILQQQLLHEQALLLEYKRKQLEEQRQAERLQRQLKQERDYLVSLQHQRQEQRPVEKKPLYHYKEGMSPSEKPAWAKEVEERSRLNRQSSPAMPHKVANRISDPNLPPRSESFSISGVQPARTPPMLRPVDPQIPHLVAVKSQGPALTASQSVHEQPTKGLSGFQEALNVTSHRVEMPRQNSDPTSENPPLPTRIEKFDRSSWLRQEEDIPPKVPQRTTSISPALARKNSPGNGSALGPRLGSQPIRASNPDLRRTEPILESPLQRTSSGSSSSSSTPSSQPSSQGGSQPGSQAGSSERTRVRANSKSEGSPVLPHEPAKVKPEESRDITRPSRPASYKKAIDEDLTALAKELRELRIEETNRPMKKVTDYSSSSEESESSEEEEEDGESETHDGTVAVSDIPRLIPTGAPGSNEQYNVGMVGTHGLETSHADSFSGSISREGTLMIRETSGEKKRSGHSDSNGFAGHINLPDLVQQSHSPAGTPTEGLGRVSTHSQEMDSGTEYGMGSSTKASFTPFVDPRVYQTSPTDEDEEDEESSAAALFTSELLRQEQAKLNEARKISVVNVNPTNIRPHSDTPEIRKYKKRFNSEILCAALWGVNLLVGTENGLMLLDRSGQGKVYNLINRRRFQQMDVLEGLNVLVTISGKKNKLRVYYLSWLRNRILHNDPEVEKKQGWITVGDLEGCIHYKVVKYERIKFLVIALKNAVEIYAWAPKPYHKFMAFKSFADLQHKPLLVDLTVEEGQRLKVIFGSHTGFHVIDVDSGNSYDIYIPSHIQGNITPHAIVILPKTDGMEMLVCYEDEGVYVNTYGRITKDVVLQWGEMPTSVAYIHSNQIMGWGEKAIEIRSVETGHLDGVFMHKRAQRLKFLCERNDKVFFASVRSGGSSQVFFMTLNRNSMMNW

[4] = target: T3, Protein kinase C epsilon type (Homo sapiens) (UniProt Q02156); test: Inhibition of human recombinant PKCe at 15 nM related to control ULK1
T3 sequence (whole entry): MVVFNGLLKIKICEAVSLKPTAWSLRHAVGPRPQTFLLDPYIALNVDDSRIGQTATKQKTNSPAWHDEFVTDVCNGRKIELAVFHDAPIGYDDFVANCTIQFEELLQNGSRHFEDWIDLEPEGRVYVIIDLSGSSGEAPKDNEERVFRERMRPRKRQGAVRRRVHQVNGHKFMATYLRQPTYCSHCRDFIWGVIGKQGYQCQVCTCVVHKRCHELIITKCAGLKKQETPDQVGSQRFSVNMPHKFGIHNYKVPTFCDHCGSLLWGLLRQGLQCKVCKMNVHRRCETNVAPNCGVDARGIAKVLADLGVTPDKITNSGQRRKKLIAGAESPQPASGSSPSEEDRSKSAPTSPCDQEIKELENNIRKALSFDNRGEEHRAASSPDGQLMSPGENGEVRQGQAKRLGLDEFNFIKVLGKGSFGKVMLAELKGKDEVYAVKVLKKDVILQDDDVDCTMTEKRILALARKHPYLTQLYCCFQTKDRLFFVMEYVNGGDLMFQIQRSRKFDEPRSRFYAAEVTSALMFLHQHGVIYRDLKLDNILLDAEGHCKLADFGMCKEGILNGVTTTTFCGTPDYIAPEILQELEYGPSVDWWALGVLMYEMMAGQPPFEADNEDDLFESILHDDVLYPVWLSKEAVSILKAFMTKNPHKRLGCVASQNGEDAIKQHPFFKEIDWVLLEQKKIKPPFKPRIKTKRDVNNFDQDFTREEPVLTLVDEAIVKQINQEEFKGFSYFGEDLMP

[5] = target: Calcium/calmodulin-dependent protein kinase type 1G (Homo sapiens) (UniProt Q96NX5); test: Inhibition of human recombinant CaMK1g at 40 nM in presence of ATP by radiometric assay relative to control
Calcium/calmodulin-dependent protein kinase type 1G (Homo sapiens), sequence (Q96NX5 whole entry): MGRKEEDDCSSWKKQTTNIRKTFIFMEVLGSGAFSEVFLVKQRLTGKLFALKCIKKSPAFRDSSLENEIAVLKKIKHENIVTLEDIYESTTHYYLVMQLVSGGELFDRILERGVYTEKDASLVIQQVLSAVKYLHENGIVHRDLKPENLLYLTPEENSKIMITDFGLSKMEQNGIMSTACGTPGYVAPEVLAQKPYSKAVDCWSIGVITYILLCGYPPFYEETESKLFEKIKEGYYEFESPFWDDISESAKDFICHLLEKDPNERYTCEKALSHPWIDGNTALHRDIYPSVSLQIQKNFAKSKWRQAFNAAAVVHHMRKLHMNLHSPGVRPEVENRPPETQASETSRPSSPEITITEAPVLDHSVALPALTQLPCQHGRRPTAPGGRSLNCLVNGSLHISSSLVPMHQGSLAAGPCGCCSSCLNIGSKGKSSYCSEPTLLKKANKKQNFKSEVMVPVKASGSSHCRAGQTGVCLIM

[6] = target: Ephrin type-A receptor 7 (Homo sapiens) (UniProt Q15375); test: Inhibition of human recombinant EphA7 at 40 nM related to control ULK1
Ephrin type-A receptor 7 (Homo sapiens), sequence (Q15375 28-998 limits assumed): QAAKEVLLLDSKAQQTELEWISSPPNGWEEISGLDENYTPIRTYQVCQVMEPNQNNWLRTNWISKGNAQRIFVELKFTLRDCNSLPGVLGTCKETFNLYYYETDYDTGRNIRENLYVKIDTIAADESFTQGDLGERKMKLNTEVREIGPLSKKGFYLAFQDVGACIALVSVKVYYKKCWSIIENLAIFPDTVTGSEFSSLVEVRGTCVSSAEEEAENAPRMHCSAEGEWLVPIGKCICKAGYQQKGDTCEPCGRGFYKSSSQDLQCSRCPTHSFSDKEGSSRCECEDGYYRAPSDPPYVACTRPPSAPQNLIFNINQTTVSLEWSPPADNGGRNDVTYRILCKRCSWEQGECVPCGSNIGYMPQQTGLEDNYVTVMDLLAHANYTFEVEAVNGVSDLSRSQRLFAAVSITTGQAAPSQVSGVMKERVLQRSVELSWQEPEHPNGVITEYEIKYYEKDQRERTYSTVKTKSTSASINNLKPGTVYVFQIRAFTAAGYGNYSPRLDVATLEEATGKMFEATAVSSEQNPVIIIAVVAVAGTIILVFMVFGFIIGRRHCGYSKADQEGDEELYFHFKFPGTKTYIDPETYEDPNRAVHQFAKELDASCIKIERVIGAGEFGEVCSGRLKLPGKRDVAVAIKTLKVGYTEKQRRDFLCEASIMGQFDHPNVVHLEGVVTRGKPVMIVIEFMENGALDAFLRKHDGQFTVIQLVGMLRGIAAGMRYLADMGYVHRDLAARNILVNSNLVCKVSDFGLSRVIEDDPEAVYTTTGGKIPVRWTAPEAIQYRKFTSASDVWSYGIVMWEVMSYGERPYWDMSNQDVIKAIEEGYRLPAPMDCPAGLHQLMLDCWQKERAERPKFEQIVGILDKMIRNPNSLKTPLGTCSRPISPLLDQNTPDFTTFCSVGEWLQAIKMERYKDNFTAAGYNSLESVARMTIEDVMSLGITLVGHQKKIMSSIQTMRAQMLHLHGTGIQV

- inhibition [1]: 0%
- inhibition [2]: 0%
- fold change (FC) [3]: 0.05
Compound: CNC(=O)c1ccccc1Oc1nc(Nc2cc(OC)c(OC)c(OC)c2)ncc1Br

- fold change (FC) [4]: 0
Compound: CC(C)[C@H](NC(=O)c1cc(-c2cnn3cc(-c4ccc(OCCN5CCCCC5)cc4)cnc23)cs1)C(F)(F)F

- inhibition [5]: 0%
- fold change (FC) [6]: 0
Compound: O=C(N[C@@H](C1CC1)C(F)(F)F)c1cc(-c2cnn3cc(-c4ccc(F)cc4)cnc23)cs1
